Source: patent US20120252721A1 (priority 2011, published 2012)
pEC50: −log10 of the molar value.

Assays:
in vitro = format: cell-based; conditions: human; GS4.1 cells, cellular viability
Description: For cytotoxicity evaluation, GS4.1 cells were treated with compounds as described above and cellular viability was monitored using the Cell Titer 96 AQeous One Solution Cell Proliferation Assay (Promega). CC50 values were determined from the % cytotoxicity versus concentration data with Tecan Magellan software as described above.

[1] = system: ZS11-luc L31V (HCV genotype 1b replicon); experiment: Luciferase replicon transient transfection assay, ZS11-luc L31V; format: cell-based, hepatitis C virus; conditions: for pEC50: Hepatitis C virus, 96 h, Huh7.5 cells, 4 days
Description: (§1) The luciferase replicon transient transfection assay measures the ability of a test compound to inhibit the replication of a transiently-transfected HCV luciferase-bearing wild-type or mutant replicon in cured human hepatoma cells (Huh7.5). The inhibition of HCV replication was measured by quantification of luciferase protein expression. This assay has been validated using a panel of genotype 1a and 1b replicons bearing mutations known to be associated with resistance to BMS-790052. Briefly, subconfluent Huh7.5 cells were electroporated with 10 μg of wild-type or mutant luciferase-bearing HCV replicon RNA. The cells were then seeded in 96-well opaque white plates at 3×10^4 cells/well in 150 μL/well and incubated for 4 hrs at 37° C./5% CO2. Ten 1:5 serial dilutions of each test compound were made in media (DMEM containing glucose, L-glutamine and sodium pyruvate, 10% fetal bovine serum, 100 IU/mL penicillin, 100 μg/mL streptomycin, 2 mM GlutaMAX, and 1×MEM non-essential amino acids (Mediatech, Inc. and Invitrogen Corp.)) at concentrations that were 4× higher than the final concentrations to be tested and 50 μL/well was added to the transfected cells. Untreated, mock-transfected cells served as a negative control of luciferase expression. The plates were incubated at 37° C./5% CO2 for 4 days whereupon the media was removed and 50 μL of ONE-glo luciferase substrate (Promega) was added to each well. The plates were agitated on a rotating platform at room temperature for 3 min and read in a Victor^3V microplate reader (Perkin-Elmer) using a 700 nm cut-off filter with a 1 sec read time. EC50 values were calculated from dose response curves from the resulting best-fit equations determined by Microsoft Excel and XLfit 4.1 software.

[2] = system: ZS11-luc Y93H (HCV genotype 1b replicon); experiment: Luciferase replicon transient transfection assay, ZS11-luc Y93H; format: cell-based, hepatitis C virus; conditions: for pEC50: Hepatitis C virus, 96 h, Huh7.5 cells, 4 days
Description: as §1

HCV genotype 5a = experiment: Replicon assay, genotype 5a (method not described); format: cell-based; conditions: Hepatitis C virus
[3] = system: 1a-luc M28T (HCV genotype 1a replicon); experiment: Luciferase replicon transient transfection assay, 1a-luc M28T; format: cell-based, hepatitis C virus; conditions: for pEC50: Hepatitis C virus, 96 h, Huh7.5 cells, 4 days
Description: as §1

[4] = system: 1a-luc Q30K (HCV genotype 1a replicon); experiment: Luciferase replicon transient transfection assay, 1a-luc Q30K; format: cell-based, hepatitis C virus; conditions: for pEC50: Hepatitis C virus, 96 h, Huh7.5 cells, 4 days
Description: as §1

[5] = system: 1a-luc Q30R (HCV genotype 1a replicon); experiment: Luciferase replicon transient transfection assay, 1a-luc Q30R; format: cell-based, hepatitis C virus; conditions: for pEC50: Hepatitis C virus, 96 h, Huh7.5 cells, 4 days
Description: as §1

[6] = system: 1a-luc L31F (HCV genotype 1a replicon); experiment: Luciferase replicon transient transfection assay, 1a-luc L31F; format: cell-based, hepatitis C virus; conditions: for pEC50: Hepatitis C virus, 96 h, Huh7.5 cells, 4 days
Description: as §1

[7] = system: 1a-luc L31M (HCV genotype 1a replicon); experiment: Luciferase replicon transient transfection assay, 1a-luc L31M; format: cell-based, hepatitis C virus; conditions: for pEC50: Hepatitis C virus, 96 h, Huh7.5 cells, 4 days
Description: as §1

[8] = system: 1a-luc P32L (HCV genotype 1a replicon); experiment: Luciferase replicon transient transfection assay, 1a-luc P32L; format: cell-based, hepatitis C virus; conditions: for pEC50: Hepatitis C virus, 96 h, Huh7.5 cells, 4 days
Description: as §1

[9] = system: HCV genotype 1a replicon, NS3 T260A; experiment: Luciferase replicon transient transfection assay, genotype 1a NS3 T260A; format: cell-based, hepatitis C virus; conditions: for pEC50: Hepatitis C virus, genotype 1a, HCV region NS3, mutation T260A
Description: as §1
(§2) To determine the replication capacity of each mutant relative to the wild-type parental replicon, transfected cells were plated on two plates and were not treated with compound. Luciferase activity was measured at time points of 4 hrs and 4 days after plating for each replicon. Replication capacity was calculated by dividing the day 4 CPS by the 4 hour CPS for each replicon and determining the percentage present for each mutant replicon relative to wild-type replicon values. The NS3, NS4B, and NS5B mutants were prepared and tested according to the methods described herein.

[10] = system: HCV genotype 1a replicon, NS4B E15G; experiment: Luciferase replicon transient transfection assay, genotype 1a NS4B E15G; format: cell-based, hepatitis C virus; conditions: for pEC50: Hepatitis C virus, HCV region NS4B, mutation E15G; for Ratio: NS4B E15G
Description: as §1, §2

[11] = system: HCV genotype 1a replicon, NS5A K24E; experiment: Luciferase replicon transient transfection assay, genotype 1a NS5A K24E; format: cell-based, hepatitis C virus; conditions: for pEC50: Hepatitis C virus, genotype 1a, HCV region NS5A, mutation K24E
Description: as §1

[12] = system: HCV genotype 1a replicon, NS5A E295G; experiment: Luciferase replicon transient transfection assay, genotype 1a NS5A E295G; format: cell-based, hepatitis C virus; conditions: for pEC50: Hepatitis C virus, genotype 1a, HCV region NS5A, mutation E295G
Description: as §1

[13] = system: ZS11-luc L28T (HCV genotype 1b replicon); experiment: Luciferase replicon transient transfection assay, ZS11-luc L28T; format: cell-based, hepatitis C virus; conditions: for pEC50: Hepatitis C virus, 96 h, Huh7.5 cells, 4 days
Description: as §1

[14] = system: ZS11-luc R30E (HCV genotype 1b replicon); experiment: Luciferase replicon transient transfection assay, ZS11-luc R30E; format: cell-based, hepatitis C virus; conditions: for pEC50: Hepatitis C virus, 96 h, Huh7.5 cells, 4 days
Description: as §1

[15] = system: ZS11-luc P32L (HCV genotype 1b replicon); experiment: Luciferase replicon transient transfection assay, ZS11-luc P32L; format: cell-based, hepatitis C virus; conditions: for pEC50: Hepatitis C virus, 96 h, Huh7.5 cells, 4 days
Description: as §1

[16] = system: ZS11-luc Y93N (HCV genotype 1b replicon); experiment: Luciferase replicon transient transfection assay, ZS11-luc Y93N; format: cell-based, hepatitis C virus; conditions: for pEC50: Hepatitis C virus, 96 h, Huh7.5 cells, 4 days
Description: as §1

[17] = system: ZS11-luc replicon, NS3-A156T; experiment: Luciferase replicon transient transfection assay, NS3-A156T; format: cell-based, hepatitis C virus; conditions: for pEC50: Hepatitis C virus
Description: as §1, §2

[18] = system: ZS11-luc replicon, NS3-D168V; experiment: Luciferase replicon transient transfection assay, NS3-D168V; format: cell-based, hepatitis C virus; conditions: for pEC50: Hepatitis C virus
Description: as §1, §2

Compound	CC50 (in vitro)	Ratio [1]	pEC50 [1]	Ratio [2]	pEC50 [2]	pEC50 (HCV genotype 5a)	Ratio [3]	pEC50 [3]	Ratio [4]	pEC50 [4]	Ratio [5]	pEC50 [5]	Ratio [6]	pEC50 [6]	Ratio [7]	pEC50 [7]	Ratio [8]	pEC50 [8]	pEC50 [9]	Ratio [9]	further results
COC(=O)N[C@H](C(=O)N1CCC[C@H]1c1ncc(-c2ccc(-c3csc4c(-c5cnc([C@@H]6CCCN6C(=O)[C@@H](NC(=O)OC)C(C)C)[nH]5)csc34)cc2)[nH]1)C(C)C [Compound A15, [(S)-1-((S)-2-{4-[4-(6-{2-[(S)-1-((S)-2-methoxycarbonylamino-3-methyl-butyryl)-pyrrolidin-2-yl]-3H-imidazol-4-yl}-thieno[3,2-b]thiophen-3-yl)-phenyl]-1H-imidazol-2-yl}-pyrrolidine-1-carbonyl)-2-methyl-propyl]-carbamic acid methyl ester]	10000 to 75000 nM																				
COC(=O)N[C@H](C(=O)N1CCC[C@H]1c1ncc(-c2ccc(-c3csc4c(-c5cnc([C@@H]6CCCN6C(=O)[C@H](NC(=O)OC(C)(C)C)c6ccccc6)[nH]5)csc34)cc2)[nH]1)C(C)C [Compound A111, [(S)-1-((S)-2-{4-[4-(6-{(S)-2-[1-((R)-2-tert-butoxycarbonylamino-2-phenyl-acetyl)-pyrrolidin-2-yl]-3H-imidazol-4-yl}-thieno[3,2-b]thiophen-3-yl)-phenyl]-1H-imidazol-2-yl}-pyrrolidine-1-carbonyl)-2-methyl-propyl]-carbamic acid methyl ester]	> 75000 nM	51	10.05	48	10.10																
COC(=O)N[C@H](C(=O)N1CCC[C@H]1c1nc2cc(-c3csc4c(-c5ccc(-c6cnc([C@@H]7CCCN7C(=O)[C@H](NC(=O)OC)c7ccccc7)[nH]6)cc5)csc34)ccc2[nH]1)C(C)C [Compound A169, [(S)-1-((S)-2-{6-[6-(4-{(S)-2-[1-((R)-2-methoxycarbonylamino-2-phenyl-acetyl)-pyrrolidin-2-yl]-3H-imidazol-4-yl}-phenyl)-thieno[3,2-b]thiophen-3-yl]-1H-benzoimidazol-2-yl}-pyrrolidine-1-carbonyl)-2-methyl-propyl]-carbamic acid methyl ester]		14	10.52	82	9.70	> 10.00	155	9.52	310	9.15	10	10.70	68	9.82	311	9.15	173	9.40	11.52	1.57	pEC50 [10]: 11.52; Ratio [10]: 1.52; pEC50 [11]: 11.40; Ratio [11]: 1.83; pEC50 [12]: 11.40; Ratio [12]: 1.62; Ratio [13]: 73; pEC50 [13]: 9.70; Ratio [14]: 1; pEC50 [14]: 11.52; Ratio [15]: 8; pEC50 [15]: 10.70; Ratio [16]: 146; pEC50 [16]: 9.40; pEC50 [17]: 11.74; Ratio [17]: 1.09; pEC50 [18]: 11.74; Ratio [18]: 1.04
COC(=O)N[C@H](C(=O)N1CCC[C@H]1c1ncc(-c2ccc(-c3csc4c(-c5ccc6[nH]c([C@@H]7CCCN7C(=O)[C@H](NC(=O)OC)c7ccccc7)nc6c5)csc34)cc2)[nH]1)C(C)C [Compound A172, [(S)-1-((S)-2-{5-[4-(6-{(S)-2-[1-((R)-2-Methoxycarbonylamino-2-phenyl-acetyl)-pyrrolidin-2-yl]-3H-benzoimidazol-5-yl}-thieno[3,2-b]thiophen-3-yl)-phenyl]-1H-imidazol-2-yl}-pyrrolidine-1-carbonyl)-2-methyl-propyl]-carbamic acid methyl ester]		9	10.40	56	9.52	> 10.00	174	9.15	317	9.00	10	10.40	67	9.52	378	8.70	173	9.15	11.22	1.61	pEC50 [10]: 11.22; Ratio [10]: 1.68; pEC50 [11]: 11.22; Ratio [11]: 1.64; pEC50 [12]: 11.22; Ratio [12]: 1.67; Ratio [13]: 63; pEC50 [13]: 9.70; Ratio [14]: 1; pEC50 [14]: 11.22; Ratio [15]: 6; pEC50 [15]: 10.52; Ratio [16]: 65; pEC50 [16]: 9.52; pEC50 [17]: 11.59; Ratio [17]: 1.14; pEC50 [18]: 11.62; Ratio [18]: 1.04
